The source made the active and inactive calls.
Tests used:
[1] = viability loss in THP-1 monocytes – THP-1 cells, cytotoxicity control for Vif-APOBEC3G degradation inhibitor project, dose response (AID 1117359); type: functional; settings: THP-1
SUMO-activating enzyme = SUMO-activating enzyme (Homo sapiens, UniProt Q9UBT2); experiment: blockers of SAE1/SAE2–UBC9 SUMO transfer – biochemical, HTRF, uHTS, primary screen (AID 2006); type: protein-complex assay
Protein RecA = target: T1, Protein RecA (Mycobacterium tuberculosis, UniProt P9WHJ3); experiment: Fluorescence Cell-Free Homogeneous Dose Retest to Identify Inhibitors of RecA-Intein Splicing Activity. [Related pubchem assays (depositor defined):AID2097, AID2223, AID489010, AID492950]; type: functional
T1 sequence (P9WHJ3 whole entry): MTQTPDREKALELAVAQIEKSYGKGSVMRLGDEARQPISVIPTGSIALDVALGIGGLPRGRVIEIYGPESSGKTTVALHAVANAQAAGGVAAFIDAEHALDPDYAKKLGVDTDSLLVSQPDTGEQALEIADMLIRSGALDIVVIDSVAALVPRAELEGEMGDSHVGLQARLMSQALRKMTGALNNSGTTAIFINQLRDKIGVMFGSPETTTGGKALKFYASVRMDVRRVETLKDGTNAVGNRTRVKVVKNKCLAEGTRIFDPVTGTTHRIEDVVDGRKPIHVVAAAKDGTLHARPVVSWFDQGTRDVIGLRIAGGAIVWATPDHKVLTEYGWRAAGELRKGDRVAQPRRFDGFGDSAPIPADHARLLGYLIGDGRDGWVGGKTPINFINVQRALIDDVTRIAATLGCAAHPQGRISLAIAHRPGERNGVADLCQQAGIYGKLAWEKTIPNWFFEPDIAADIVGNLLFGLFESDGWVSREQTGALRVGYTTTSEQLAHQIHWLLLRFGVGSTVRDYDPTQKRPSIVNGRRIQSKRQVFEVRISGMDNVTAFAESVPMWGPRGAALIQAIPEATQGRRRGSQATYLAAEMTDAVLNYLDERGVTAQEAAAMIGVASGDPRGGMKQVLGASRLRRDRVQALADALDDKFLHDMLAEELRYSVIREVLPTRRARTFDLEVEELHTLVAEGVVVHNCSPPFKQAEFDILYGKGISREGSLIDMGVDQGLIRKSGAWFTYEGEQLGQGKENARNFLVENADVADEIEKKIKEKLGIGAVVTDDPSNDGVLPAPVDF

[2] = target: T2, Serine/threonine-protein phosphatase (Homo sapiens, UniProt Q9BPW0); experiment: Counterscreen for inhibitors of PP1: fluorescence-based biochemical high throughput dose response assay to identify inhibitors of Protein Phosphatase 5 (PP5). [Related pubchem assays: 2034 (Summary (PP5 inhibitors)), 1987 (PP5 inhibitors in singlate), 2235 (PP1 inhibitors in singlate)]
T2 sequence (Q9BPW0 whole entry): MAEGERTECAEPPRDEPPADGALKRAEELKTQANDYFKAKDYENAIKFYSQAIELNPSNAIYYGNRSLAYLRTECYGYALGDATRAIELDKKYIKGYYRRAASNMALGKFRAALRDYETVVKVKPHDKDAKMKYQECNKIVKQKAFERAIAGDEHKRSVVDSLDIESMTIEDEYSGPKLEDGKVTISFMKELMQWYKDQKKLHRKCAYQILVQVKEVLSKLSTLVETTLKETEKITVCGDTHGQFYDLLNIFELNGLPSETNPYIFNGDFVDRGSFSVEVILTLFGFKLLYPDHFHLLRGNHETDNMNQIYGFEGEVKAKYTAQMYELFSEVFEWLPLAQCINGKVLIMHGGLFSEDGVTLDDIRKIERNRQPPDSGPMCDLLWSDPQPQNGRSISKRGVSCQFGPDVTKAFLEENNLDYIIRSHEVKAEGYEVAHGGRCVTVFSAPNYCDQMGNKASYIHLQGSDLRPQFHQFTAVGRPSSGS

[3] = target: Dual specificity protein kinase CLK4 (Homo sapiens, UniProt Q9HAZ1); type: functional
[4] = target: Serine/threonine-protein kinase TBK1 (Homo sapiens, UniProt Q9UHD2); experiment: Navigating the Kinome. Panel member name: TBK1; type: functional
Serine/threonine-protein kinase TBK1, sequence (Q9UHD2 whole entry): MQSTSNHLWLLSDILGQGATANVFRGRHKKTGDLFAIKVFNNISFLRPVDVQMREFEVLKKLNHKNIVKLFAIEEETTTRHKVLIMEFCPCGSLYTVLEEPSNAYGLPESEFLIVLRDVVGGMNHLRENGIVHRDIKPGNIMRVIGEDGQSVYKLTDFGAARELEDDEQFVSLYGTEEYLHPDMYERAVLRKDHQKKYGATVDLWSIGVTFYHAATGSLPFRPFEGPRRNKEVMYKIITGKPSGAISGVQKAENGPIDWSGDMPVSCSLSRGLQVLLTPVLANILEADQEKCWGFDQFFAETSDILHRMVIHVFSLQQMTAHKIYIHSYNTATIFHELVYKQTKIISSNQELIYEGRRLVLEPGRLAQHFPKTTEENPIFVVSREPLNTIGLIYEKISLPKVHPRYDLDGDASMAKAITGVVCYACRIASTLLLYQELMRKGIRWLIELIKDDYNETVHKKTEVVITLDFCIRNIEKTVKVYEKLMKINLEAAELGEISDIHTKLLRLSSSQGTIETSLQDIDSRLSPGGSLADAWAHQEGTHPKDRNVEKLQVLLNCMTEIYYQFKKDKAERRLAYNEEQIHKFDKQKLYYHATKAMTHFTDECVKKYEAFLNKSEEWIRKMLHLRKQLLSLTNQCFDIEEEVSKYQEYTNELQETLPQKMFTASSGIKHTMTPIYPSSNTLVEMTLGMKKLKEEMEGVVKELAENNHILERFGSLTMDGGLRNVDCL

[5] = target: Dual specificity tyrosine-phosphorylation-regulated kinase 1B (Homo sapiens, UniProt Q9Y463); experiment: Navigating the Kinome. Panel member name: DYRK1B; type: functional
[6] = target: Tyrosine-protein kinase Lck (Homo sapiens, UniProt P06239); type: functional;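 note: lck was assayed as one member of a kinase panel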
[7] = target: Platelet-derived growth factor receptor alpha (Homo sapiens, UniProt P16234); experiment: Navigating the Kinome. Panel member name: PDGFRA; type: functional
[8] = target: Serine/threonine-protein kinase TAO1 (Homo sapiens, UniProt Q7L7X3); type: functional
[9] = target: Insulin-like growth factor 1 receptor (Homo sapiens, UniProt P08069); experiment: Navigating the Kinome. Panel member name: IGF1R; type: functional
[10] = target: Tyrosine-protein kinase ABL1 (Homo sapiens, UniProt P00519); type: functional
Tyrosine-protein kinase ABL1, sequence (P00519 whole entry): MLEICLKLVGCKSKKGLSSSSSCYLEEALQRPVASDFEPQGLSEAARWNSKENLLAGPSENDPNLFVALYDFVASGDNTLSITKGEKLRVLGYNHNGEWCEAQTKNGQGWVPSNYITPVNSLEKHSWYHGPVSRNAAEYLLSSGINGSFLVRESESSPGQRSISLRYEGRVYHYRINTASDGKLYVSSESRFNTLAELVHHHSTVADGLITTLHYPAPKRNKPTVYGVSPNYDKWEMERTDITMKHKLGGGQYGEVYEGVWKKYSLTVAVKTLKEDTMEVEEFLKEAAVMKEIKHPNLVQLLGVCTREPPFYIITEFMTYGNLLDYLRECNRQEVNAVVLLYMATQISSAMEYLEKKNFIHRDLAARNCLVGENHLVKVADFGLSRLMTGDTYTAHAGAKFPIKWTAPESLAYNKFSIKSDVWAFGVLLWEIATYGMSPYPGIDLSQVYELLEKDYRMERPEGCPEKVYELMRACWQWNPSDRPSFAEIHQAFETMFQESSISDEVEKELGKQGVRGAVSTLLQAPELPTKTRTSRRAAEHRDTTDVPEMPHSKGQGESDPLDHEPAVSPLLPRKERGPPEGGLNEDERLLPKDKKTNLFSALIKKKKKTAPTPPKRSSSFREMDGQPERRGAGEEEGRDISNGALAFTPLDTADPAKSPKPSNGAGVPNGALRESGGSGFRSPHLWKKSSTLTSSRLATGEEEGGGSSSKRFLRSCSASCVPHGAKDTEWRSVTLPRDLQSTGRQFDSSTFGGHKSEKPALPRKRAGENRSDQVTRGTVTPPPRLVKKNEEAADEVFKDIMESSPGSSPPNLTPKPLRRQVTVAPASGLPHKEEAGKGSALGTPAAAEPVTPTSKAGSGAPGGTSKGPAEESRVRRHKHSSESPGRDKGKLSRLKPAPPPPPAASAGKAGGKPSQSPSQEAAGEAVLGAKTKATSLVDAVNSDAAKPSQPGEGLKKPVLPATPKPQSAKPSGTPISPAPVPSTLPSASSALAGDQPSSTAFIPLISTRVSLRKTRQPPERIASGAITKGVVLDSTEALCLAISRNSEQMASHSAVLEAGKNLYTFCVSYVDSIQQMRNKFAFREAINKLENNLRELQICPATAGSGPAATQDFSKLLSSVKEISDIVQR

[11] = target: Rho-associated protein kinase 1 (Homo sapiens, UniProt Q13464); type: functional;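 note: measured within a broad kinome-wide panel profiling many kinases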
Rho-associated protein kinase 1, sequence (Q13464 whole entry): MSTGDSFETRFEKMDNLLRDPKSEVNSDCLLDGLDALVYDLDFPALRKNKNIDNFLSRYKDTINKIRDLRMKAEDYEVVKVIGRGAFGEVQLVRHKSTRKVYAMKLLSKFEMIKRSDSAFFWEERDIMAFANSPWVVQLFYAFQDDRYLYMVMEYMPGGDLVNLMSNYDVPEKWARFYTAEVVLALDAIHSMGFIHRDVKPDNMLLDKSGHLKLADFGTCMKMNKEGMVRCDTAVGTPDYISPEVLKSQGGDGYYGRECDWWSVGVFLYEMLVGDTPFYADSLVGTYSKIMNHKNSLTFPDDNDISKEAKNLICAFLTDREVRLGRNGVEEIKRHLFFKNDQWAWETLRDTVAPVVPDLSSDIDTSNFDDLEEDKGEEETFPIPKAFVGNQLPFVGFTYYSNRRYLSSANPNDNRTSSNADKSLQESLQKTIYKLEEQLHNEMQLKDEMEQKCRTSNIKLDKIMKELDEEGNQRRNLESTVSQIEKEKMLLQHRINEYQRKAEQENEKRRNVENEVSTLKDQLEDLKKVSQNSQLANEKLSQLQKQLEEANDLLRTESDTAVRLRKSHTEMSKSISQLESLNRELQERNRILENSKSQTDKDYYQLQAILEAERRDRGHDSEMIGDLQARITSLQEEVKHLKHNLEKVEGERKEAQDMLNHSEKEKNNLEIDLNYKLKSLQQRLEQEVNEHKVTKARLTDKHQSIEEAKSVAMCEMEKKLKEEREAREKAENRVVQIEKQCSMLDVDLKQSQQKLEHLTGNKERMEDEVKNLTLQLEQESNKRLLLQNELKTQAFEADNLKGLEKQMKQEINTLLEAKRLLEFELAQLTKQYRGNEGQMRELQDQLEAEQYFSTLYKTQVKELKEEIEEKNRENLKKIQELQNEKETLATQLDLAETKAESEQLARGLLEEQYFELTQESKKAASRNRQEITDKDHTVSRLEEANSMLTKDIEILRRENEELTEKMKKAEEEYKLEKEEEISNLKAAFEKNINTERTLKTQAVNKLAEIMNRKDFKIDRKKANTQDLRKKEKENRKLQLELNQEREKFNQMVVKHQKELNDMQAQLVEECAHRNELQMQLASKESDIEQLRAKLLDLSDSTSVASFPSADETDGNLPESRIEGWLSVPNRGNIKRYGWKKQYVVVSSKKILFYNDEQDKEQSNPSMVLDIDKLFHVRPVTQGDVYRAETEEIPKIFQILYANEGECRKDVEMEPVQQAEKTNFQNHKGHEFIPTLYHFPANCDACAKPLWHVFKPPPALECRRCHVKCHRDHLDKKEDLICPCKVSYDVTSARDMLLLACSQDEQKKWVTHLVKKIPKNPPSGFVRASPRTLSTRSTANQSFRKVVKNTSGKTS

[12] = target: Mitogen-activated protein kinase kinase kinase kinase 4 (Homo sapiens, UniProt O95819); type: functional
[13] = target: Serine/threonine-protein kinase D3 (Homo sapiens, UniProt O94806); type: functional;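 note: determined within a kinase panel screen, with PRKCN as the panel member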
Serine/threonine-protein kinase D3, sequence (O94806 whole entry): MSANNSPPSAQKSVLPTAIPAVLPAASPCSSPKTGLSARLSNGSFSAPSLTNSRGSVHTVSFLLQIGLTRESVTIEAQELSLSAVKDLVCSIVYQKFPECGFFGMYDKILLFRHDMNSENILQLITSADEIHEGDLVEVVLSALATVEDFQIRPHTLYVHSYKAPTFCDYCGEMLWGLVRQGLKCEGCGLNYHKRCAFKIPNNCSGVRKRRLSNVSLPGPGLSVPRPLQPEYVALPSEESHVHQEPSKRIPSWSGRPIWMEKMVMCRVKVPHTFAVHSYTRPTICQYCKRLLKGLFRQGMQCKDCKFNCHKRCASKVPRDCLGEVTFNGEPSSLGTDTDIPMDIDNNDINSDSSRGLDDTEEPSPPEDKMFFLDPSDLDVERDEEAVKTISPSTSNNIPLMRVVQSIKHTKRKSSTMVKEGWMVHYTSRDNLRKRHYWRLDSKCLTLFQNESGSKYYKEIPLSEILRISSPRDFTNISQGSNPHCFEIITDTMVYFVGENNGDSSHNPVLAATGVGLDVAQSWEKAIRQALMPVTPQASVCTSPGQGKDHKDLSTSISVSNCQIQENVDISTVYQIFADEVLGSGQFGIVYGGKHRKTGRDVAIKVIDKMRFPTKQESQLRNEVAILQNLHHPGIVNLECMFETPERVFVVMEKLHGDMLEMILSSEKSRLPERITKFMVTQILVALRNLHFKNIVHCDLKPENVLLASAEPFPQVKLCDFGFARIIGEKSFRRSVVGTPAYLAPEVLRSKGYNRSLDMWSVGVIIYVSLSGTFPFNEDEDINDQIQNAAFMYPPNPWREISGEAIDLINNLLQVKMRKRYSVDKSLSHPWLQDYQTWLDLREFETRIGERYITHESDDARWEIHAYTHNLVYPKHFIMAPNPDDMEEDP

Albumin = Albumin (Bos taurus, UniProt P02769); experiment: Counterscreen for inhibitors of T-cell receptor (TCR)-CD3 interaction: Fluorescence-based biochemical high throughput dose response assay to identify inhibitors of T-cell receptor (TCR)-CD3 interaction using a TAMRA-labeled BSA probe.; type: functional
Albumin, sequence (P02769 whole entry): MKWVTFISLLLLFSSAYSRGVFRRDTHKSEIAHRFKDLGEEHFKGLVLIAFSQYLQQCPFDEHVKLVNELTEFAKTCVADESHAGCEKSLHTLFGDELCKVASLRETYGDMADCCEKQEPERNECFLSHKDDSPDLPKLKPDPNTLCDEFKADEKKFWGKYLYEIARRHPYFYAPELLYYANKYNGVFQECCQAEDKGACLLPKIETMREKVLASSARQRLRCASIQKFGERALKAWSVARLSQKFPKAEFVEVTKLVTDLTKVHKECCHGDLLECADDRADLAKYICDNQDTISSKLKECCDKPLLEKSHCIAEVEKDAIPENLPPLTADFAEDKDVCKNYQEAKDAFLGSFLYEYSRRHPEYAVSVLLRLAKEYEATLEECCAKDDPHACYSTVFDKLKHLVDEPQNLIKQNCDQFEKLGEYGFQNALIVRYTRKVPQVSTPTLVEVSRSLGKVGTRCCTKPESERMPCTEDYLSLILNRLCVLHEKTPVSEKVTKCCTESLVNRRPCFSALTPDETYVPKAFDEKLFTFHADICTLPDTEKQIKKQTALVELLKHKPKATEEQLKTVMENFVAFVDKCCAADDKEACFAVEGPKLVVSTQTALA

[14] = target: T3, Zinc finger protein mex-5 (Caenorhabditis elegans, UniProt Q9XUB2); experiment: potency of MEX-5 RNA-binding blockers – biochemical, C. elegans, fluorescence polarization, dose response (AID 1960)
T3 sequence (Q9XUB2 whole entry): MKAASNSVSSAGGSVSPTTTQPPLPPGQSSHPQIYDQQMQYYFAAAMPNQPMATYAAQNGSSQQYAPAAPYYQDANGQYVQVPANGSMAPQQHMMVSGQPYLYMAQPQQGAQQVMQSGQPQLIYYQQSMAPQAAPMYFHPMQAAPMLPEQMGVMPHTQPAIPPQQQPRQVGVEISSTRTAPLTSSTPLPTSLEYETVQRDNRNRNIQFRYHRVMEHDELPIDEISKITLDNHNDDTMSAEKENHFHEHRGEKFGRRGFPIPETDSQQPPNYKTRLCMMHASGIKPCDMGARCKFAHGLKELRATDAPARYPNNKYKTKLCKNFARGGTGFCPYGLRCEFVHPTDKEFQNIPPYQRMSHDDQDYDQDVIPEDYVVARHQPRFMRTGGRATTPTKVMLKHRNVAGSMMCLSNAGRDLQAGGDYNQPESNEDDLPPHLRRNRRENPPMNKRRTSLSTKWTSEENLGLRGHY

In the case of CC(=O)N(C1=C(Cl)C(=O)c2ccccc2C1=O)c1ccc(C(=O)O)cc1, the CC50 [1] is reported as 32.4 µM (active) and the IC50 (SUMO-activating enzyme) is reported as 17.3 µM (active).
With CC1(C)C=C2C(=NN(c3ccccc3)C(N)=C2C#N)CO1 the EC50 (Protein RecA) was 0.297 µM (active) and the IC50 [2] was > 0.828 µM (active).
For Cc1ccc(-c2cc3nc(Br)cnc3[nH]2)cc1, the Ki [3] was 0.1 µM (active), the Ki [4] was > 3.16 µM (inactive) and the Ki [5] was > 2.51 µM (inactive). The Ki [6] was > 6.31 µM (inactive), the Ki [7] was > 2.51 µM (inactive) and the Ki [8] was > 6.31 µM (inactive). For the same molecule, the Ki [9] was > 2.51 µM (inactive), the Ki [10] was 0.794 µM (active) and the Ki [11] was > 3.98 µM (inactive). The Ki [12] was > 5.01 µM (inactive) and the Ki [13] was > 3.98 µM (inactive).
For O=C1C=C(O)c2c(O)cc(O)c(O)c2C1=O, the IC50 (Albumin) was > 94.1 µM (inactive) and the EC50 [14] was 0.899 µM (active).
